Data from US7473437B2, “Method of forming fluorescent image, fluorescent image, and ink-jet recording method” (Canon Kabushiki Kaisha, priority 2004, dated 2009).
Several values for one entry are separate records, joined by “and”; a condition that tells them apart may be missing. Equal entries are not always repeated.

Experiments:
Assay type in all cases: physicochemical
[1] = Fluorescent coloring material content causing concentration quenching; conditions: image printed on a recording material
Procedure: The following respective components as ink composition to be used were mixed and sufficiently stirred, and the resultant was dissolved and/or dispersed. After that, the resultant was filtered through a Phloropore filter (trade name; manufactured by Sumitomo Electric Industries, Ltd.) having a pore size of 0.1 μm under pressure to prepare each ink. An ink 1, an ink 2, an ink 3, and an ink 5 were defined as inks of Examples and an ink 4 was defined as Reference Example. The content of each fluorescent coloring material in ink for causing the concentration quenching of a fluorescent image printed on a recording material is 0.3% by mass or more for C.I. Acid Red 52, 2.0% by mass or more for C.I. Acid Red 92, or more than 2.0% by mass for the compound (A).
In each of the above ink compositions, the fluorescence intensity of each of the inks 1 to 4 was measured by means of a commercially available fluorescence measuring device […] (trade name; manufactured by JASCO Corporation).

[2] = Light absorption spectrum of coloring materials
Procedure: Next, the multiple fluorescent coloring materials will be described more specifically with reference to multiple fluorescence examples and reference examples. Here, measurement values obtained with purified water diluted solutions of coloring materials were used for an absorption wavelength region, a maximum absorption wavelength region, and a fluorescence wavelength region. Using an absorption spectrometer, absorption wavelengths were measured. A diluted solution was prepared in such a manner that the absorbance thereof was in the range of 0.5 to 0.7. A higher region from a base line as the absorption peak of the coloring material was defined as an absorption wavelength region, and the peak value was defined as a maximum absorption wavelength. In addition, for fluorescence wavelengths, the measurement conditions were set so that the fluorescence intensities were not beyond the measurement threshold value. Then, fluorescence wavelengths were measured by using the diluted solution used in the measurement of absorbance and by fixing the excitation wavelengths of the first and second coloring materials at predetermined wavelengths. A region higher than the base line was defined as a fluorescent emission wavelength region.
The absorption wavelength regions of the first and second coloring materials were measured using a spectrophotometer U-3200 (trade name; manufactured by Hitachi Ltd.) after the dye had been diluted 100,000-fold with purified water. The absorption wavelength region of the first coloring material ranged from 450 to 620 nm, and the maximum absorption wavelength thereof was 565 nm. In addition, the absorption wavelength region of the second coloring material ranged from 300 to 450 nm, and the maximum absorption wavelength thereof was 372 nm.

[3] = Fluorescent emission and excitation spectra of evaporated ink (FP-750); conditions: standard excitation wavelength 254 nm
Procedure: At first, a predetermined amount (in this case, 0.3% by mass with respect to the solution) of C.I. Acid Red 52 (AR52) as the first fluorescent coloring material was dissolved into an aqueous solution (an organic solvent such as glycerin and purified water), followed by heating at 60° C. to completely vaporize water content, resulting in ink (hereinafter, referred to as evaporated ink).
The fluorescent emission spectra and excitation spectra of the first and second fluorescent coloring materials were measured using a fluorometer FP-750 (trade name; manufactured by JASCO Corporation). Each measurement sample was an ink from which water content was evaporated to remove the influence of water on the measurement.

SMILES | content of fluorescent coloring material in ink causing concentration quenching of a printed fluorescent image [1] [% by mass] | maximum absorption wavelength ([2]; dye diluted 100,000-fold with purified water, spectrophotometer U-3200) [nm] | absorption peak wavelength ([2]; from FIGS. 5, 6, 12, listed as AR52) | fluorescent emission peak wavelength [3] [nm] | absorption peak wavelength ([2]; from FIGS. 5, 6, 12) [nm] | absorption spectrum range, visible light ([2]; from FIGS. 5, 6, 12) [nm]
CCN(CC)c1ccc2c(-c3ccc(S(=O)(=O)[O-])cc3S(=O)(=O)[O-])c3ccc(=[N+](CC)CC)cc-3oc2c1.[Na+] [C.I. Acid Red 52] | ≥ 0.3 | 565 | 565 nm and ~560 nm | 600 |  | 
O=C([O-])c1c(Cl)c(Cl)c(Cl)c(Cl)c1-c1c2cc(Br)c(=O)c(Br)c-2oc2c(Br)c([O-])c(Br)cc12.[Na+].[Na+] [C.I. Acid Red 92] | ≥ 2.0 |  |  |  |  | 
O=C([O-])c1ccccc1-c1c2ccc(=O)cc-2oc2cc([O-])ccc12.[Na+].[Na+] [C.I. Acid Yellow 73, reference compound] |  |  |  | 530 | 490 | ≤ 525
